PubChem BioAssay (NCI)
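Briefly, cells in 96-well plates were exposed to five compound concentrations for 48 h, and endpoints were estimated by linear interpolation. The concentration for full growth arrest is given as TGI.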

Legend:
Assay in all cases: NCI tumour cell line growth inhibition, 48 h
A498 renal = system: A498 renal
ACHN renal = system: ACHN renal
BT-549 breast = system: BT-549 breast
CAKI-1 renal = system: CAKI-1 renal
CCRF-CEM leukemia = system: CCRF-CEM leukemia
COLO 205 colon = system: COLO 205 colon
DU-145 prostate = system: DU-145 prostate
HCC-2998 colon = system: HCC-2998 colon
HCT-15 colon = system: HCT-15 colon
HL-60(TB) leukemia = system: HL-60(TB) leukemia
HOP-62 NSCLC = system: HOP-62 NSCLC
HOP-92 NSCLC = system: HOP-92 NSCLC
HS 578T breast = system: HS 578T breast
IGROV1 ovarian = system: IGROV1 ovarian
K-562 leukemia = system: K-562 leukemia
KM12 colon = system: KM12 colon
LOX IMVI melanoma = system: LOX IMVI melanoma
MALME-3M melanoma = system: MALME-3M melanoma
MCF7 breast = system: MCF7 breast
MDA-MB-231 breast = system: MDA-MB-231 breast
MDA-MB-435 = system: MDA-MB-435
MOLT-4 leukemia = system: MOLT-4 leukemia
NCI-H23 lung = system: NCI-H23 lung
NCI-H460 lung = system: NCI-H460 lung
NCI-H522 lung = system: NCI-H522 lung
NCI/ADR-RES ovarian = system: NCI/ADR-RES ovarian
OVCAR-3 ovarian = system: OVCAR-3 ovarian
OVCAR-4 ovarian = system: OVCAR-4 ovarian
OVCAR-8 ovarian = system: OVCAR-8 ovarian
PC-3 prostate = system: PC-3 prostate
RPMI-8226 leukemia = system: RPMI-8226 leukemia
RXF 393 renal = system: RXF 393 renal
SF-268 CNS = system: SF-268 CNS
SF-295 CNS = system: SF-295 CNS
SF-539 CNS = system: SF-539 CNS
SK-MEL-2 melanoma = system: SK-MEL-2 melanoma
SK-MEL-28 melanoma = system: SK-MEL-28 melanoma
SK-MEL-5 melanoma = system: SK-MEL-5 melanoma
SK-OV-3 ovarian = system: SK-OV-3 ovarian
SNB-75 CNS = system: SNB-75 CNS
SW-620 colon = system: SW-620 colon
T-47D breast = system: T-47D breast
TK-10 renal = system: TK-10 renal
U251 CNS = system: U251 CNS
UACC-257 melanoma = system: UACC-257 melanoma
UACC-62 melanoma = system: UACC-62 melanoma

In the case of `Cc1cc(O)c(C(C)C)cc1SC#N`, the TGI (A498 renal) is reported as 31.9 µM, the TGI (ACHN renal) is reported as 30.1 µM and the TGI (BT-549 breast) is reported as 36.4 µM. For the same molecule, the TGI (CAKI-1 renal) was 28.2 µM, the TGI (CCRF-CEM leukemia) was 24.6 µM and the TGI (COLO 205 colon) was 40.5 µM. The TGI (DU-145 prostate) was 28.8 µM, the TGI (HCC-2998 colon) was 32.9 µM and the TGI (HCT-15 colon) was 39.3 µM. For the same molecule, the TGI (HL-60(TB) leukemia) was > 100 µM, the TGI (HOP-62 NSCLC) was 38.2 µM and the TGI (HOP-92 NSCLC) was 25.3 µM. The TGI (HS 578T breast) was 67.4 µM, the TGI (IGROV1 ovarian) was 37.6 µM and the TGI (K-562 leukemia) was 55 µM. It also gave a TGI (KM12 colon) of 31.4 µM, a TGI (LOX IMVI melanoma) of 32.6 µM and a TGI (MALME-3M melanoma) of 35.9 µM. It also gave a TGI (MCF7 breast) of 31.6 µM, a TGI (MDA-MB-231 breast) of 37.9 µM and a TGI (MDA-MB-435) of 27 µM. The TGI (MOLT-4 leukemia) was 25.3 µM, the TGI (NCI-H23 lung) was 33.3 µM and the TGI (NCI-H460 lung) was 33.4 µM. It also gave a TGI (NCI-H522 lung) of 24.9 µM, a TGI (NCI/ADR-RES ovarian) of 47.7 µM and a TGI (OVCAR-3 ovarian) of 28.8 µM. The TGI (OVCAR-4 ovarian) was 28.5 µM, the TGI (OVCAR-8 ovarian) was 88.9 µM and the TGI (PC-3 prostate) was 34.4 µM. It also gave a TGI (RPMI-8226 leukemia) of 33.7 µM, a TGI (RXF 393 renal) of 29.1 µM and a TGI (SF-268 CNS) of 49.3 µM. The TGI (SF-295 CNS) was 31.2 µM, the TGI (SF-539 CNS) was 37.1 µM and the TGI (SK-MEL-2 melanoma) was 35.7 µM. For the same molecule, the TGI (SK-MEL-28 melanoma) was 33.8 µM, the TGI (SK-MEL-5 melanoma) was 42.7 µM and the TGI (SK-OV-3 ovarian) was 37.6 µM. It also gave a TGI (SNB-75 CNS) of 22.5 µM, a TGI (SW-620 colon) of 44.5 µM and a TGI (T-47D breast) of 65 µM. It also gave a TGI (TK-10 renal) of 31.8 µM, a TGI (U251 CNS) of 31.8 µM and a TGI (UACC-257 melanoma) of 38.1 µM. It also gave a TGI (UACC-62 melanoma) of 28.7 µM.
